Assay results published in patent US11629129B2, “Microbiocidal picolinamide derivatives” (SYNGENTA PARTICIPATIONS AG, priority 2018, dated 2023).

Key:
[1] = system: Mycosphaerella arachidis (Cercospora arachidicola); assay: Mycosphaerella arachidis (Cercospora arachidicola)/Liquid Culture (Early Leaf Spot); type: cell-based; conditions: 200 ppm in the formulation, liquid culture, growth inhibition photometrically 4-5 days after application, compared to untreated control, read-out: disease control
Protocol: (§1) Mycosphaerella arachidis (Cercospora arachidicola)/Liquid Culture (Early Leaf Spot) Conidia of the fungus from cryogenic storage are directly mixed into nutrient broth (PDB potato dextrose broth). After placing a (DMSO) solution of test compound into a microtiter plate (96-well format), the nutrient broth containing the fungal spores is added. The test plates are incubated at 24° C. and the inhibition of growth is determined photometrically 4-5 days after application.

[2] = system: Glomerella lagenarium (Colletotrichum lagenarium); assay: Glomerella lagenarium (Colletotrichum lagenarium)/Liquid Culture (Anthracnose); type: cell-based; conditions: Colletotrichum orbiculare; 200 ppm in the formulation; liquid culture, growth inhibition photometrically 3 to 4 days after application; compared to untreated control; read-out: disease control
Protocol: as §1, with “Glomerella lagenarium (Colletotrichum lagenarium)/Liquid” for “Mycosphaerella arachidis (Cercospora arachidicola)/Liquid”, “(Anthracnose)” for “(Early Leaf Spot)”, “measured” for “determined”, “3 to 4” for “4-5”

[3] = system: Mycosphaerella graminicola (Septoria tritici); assay: Mycosphaerella graminicola (Septoria tritici)/Liquid Culture (Septoria Blotch); type: cell-based; conditions: Zymoseptoria tritici; 200 ppm in the formulation; liquid culture, growth inhibition photometrically 4 to 5 days after application; compared to untreated control; read-out: disease control
Protocol: as §1, with “graminicola (Septoria tritici)/Liquid” for “arachidis (Cercospora arachidicola)/Liquid”, “(Septoria Blotch)” for “(Early Leaf Spot)”, “4 to 5” for “4-5”

[4] = system: Monographella nivalis (Microdochium nivale); assay: Monographella nivalis (Microdochium nivale)/Liquid Culture (Foot Rot Cereals); type: cell-based; conditions: 200 ppm in the formulation, liquid culture, growth inhibition photometrically 4-5 days after application, compared to untreated control, read-out: disease control
Protocol: as §1, with “Monographella nivalis (Microdochium nivale)/Liquid” for “Mycosphaerella arachidis (Cercospora arachidicola)/Liquid”, “(Foot Rot Cereals)” for “(Early Leaf Spot)”

[5] = system: Puccinia recondita f. sp. tritici; assay: Puccinia recondita f. sp. tritici/Wheat/Leaf Disc Preventative (Brown Rust); type: in vivo; conditions: foliar, 200 ppm in the formulation, wheat leaf segments cv. Kanzler, inoculated 1 day after application, assessed 7-9 days after application, compared to untreated, read-out: disease control
Protocol: Puccinia recondita f. sp. tritici/Wheat/Leaf Disc Preventative (Brown Rust) Wheat leaf segments cv. Kanzler are placed on agar in multiwell plates (24-well format) and sprayed with the formulated test compound diluted in water. The leaf disks are inoculated with a spore suspension of the fungus 1 day after application. The inoculated leaf segments are incubated at 19° C. and 75% rh under a light regime of 12 h light/12 h darkness in a climate cabinet and the activity of a compound is assessed as percent disease control compared to untreated when an appropriate level of disease damage appears in untreated check leaf segments (7-9 days after application).

[6] = system: Botryotinia fuckeliana (Botrvtis cinerea); assay: Botryotinia fuckeliana (Botrvtis cinerea)/Liquid Culture (Gray Mould); type: cell-based; conditions: Botrytis cinerea; 200 ppm in the formulation; liquid culture, growth inhibition photometrically 3-4 days after application; compared to untreated control; read-out: disease control
Protocol: as §1, with “Botryotinia fuckeliana (Botrvtis cinerea)/Liquid” for “Mycosphaerella arachidis (Cercospora arachidicola)/Liquid”, “(Gray Mould)” for “(Early Leaf Spot)”, “(Vogels” for “(PDB potato dextrose”, “3-4” for “4-5”

COc1ccnc(C(=O)N[C@@H](C)C(=O)O[C@@H](C)c2ccc(Oc3ccccc3)cc2)c1O [I.at.001, [(1S)-1-(4-phenoxyphenyl)ethyl] (2S)-2-[(3-hydroxy-4-methoxy-pyridine-2-carbonyl)amino] propanoate]
≥ 80%: inhibition of growth at 200 ppm [1] | inhibition of growth at 200 ppm [2] | inhibition of growth at 200 ppm [3] | inhibition of growth at 200 ppm [4] | pest or weed control at 200 ppm [5]

COc1ccnc(C(=O)N[C@@H](C)C(=O)O[C@@H](C)c2cccc(-c3ccccc3Cl)c2)c1O [I.b.001, [(1S)-1-[3-(2-chlorophenyl)phenyl]ethyl] (2S)-2-[(3-hydroxy-4-methoxy-pyridine-2-carbonyl)amino] propanoate]
≥ 80%: inhibition of growth at 200 ppm [6] | inhibition of growth at 200 ppm [1] | inhibition of growth at 200 ppm [3] | inhibition of growth at 200 ppm [4] | pest or weed control at 200 ppm [5]

COc1ccnc(C(=O)N[C@@H](C)C(=O)O[C@@H](C)c2ccc(-c3ccc(Cl)c(C)c3)cc2)c1O [I.y.001, [(1S)-1-[4-(4-chloro-3-methyl-phenyl)phenyl]ethyl] (2S)-2-[(3-hydroxy-4-methoxy-pyridine-2-carbonyl)amino] propanoate]
≥ 80%: inhibition of growth at 200 ppm [1] | inhibition of growth at 200 ppm [2] | inhibition of growth at 200 ppm [3] | pest or weed control at 200 ppm [5]

COc1ccnc(C(=O)N[C@@H](C)C(=O)O[C@@H](C)c2ccc(-c3ccccc3)c(F)c2)c1O [I.e.001, [(1S)-1-(3-fluoro-4-phenyl-phenyl)ethyl] (2S)-2-[(3-hydroxy-4-methoxy-pyridine-2-carbonyl)amino] propanoate]
≥ 80%: inhibition of growth at 200 ppm [6] | inhibition of growth at 200 ppm [1] | inhibition of growth at 200 ppm [2] | inhibition of growth at 200 ppm [3] | inhibition of growth at 200 ppm [4] | pest or weed control at 200 ppm [5]

COc1ccnc(C(=O)N[C@@H](C)C(=O)O[C@@H](C)c2cccc(Oc3ccc(Cl)cc3)c2)c1O [I.as.001, [(1S)-1-[3-(4-chlorophenoxy)phenyl]ethyl] (2S)-2-[(3-hydroxy-4-methoxy-pyridine-2-carbonyl)amino] propanoate]
≥ 80%: inhibition of growth at 200 ppm [6] | inhibition of growth at 200 ppm [1] | inhibition of growth at 200 ppm [2] | inhibition of growth at 200 ppm [3] | pest or weed control at 200 ppm [5]

COc1ccnc(C(=O)N[C@@H](C)C(=O)O[C@@H](C)c2ccc(-c3ccccc3C(C)C)cc2)c1O [I.j.001, [(1S)-1-[4-(2-isopropylphenyl)phenyl]ethyl] (2S)-2-[(3-hydroxy-4-methoxy-pyridine-2-carbonyl)amino] propanoate]
≥ 80%: inhibition of growth at 200 ppm [1] | inhibition of growth at 200 ppm [2] | inhibition of growth at 200 ppm [3] | inhibition of growth at 200 ppm [4] | pest or weed control at 200 ppm [5]

COc1ccnc(C(=O)N[C@@H](C)C(=O)O[C@@H](C)c2ccc(Oc3ccc(Cl)cc3)cc2)c1O [I.av.001, [(1S)-1-[4-(4-chlorophenoxy)phenyl]ethyl] (2S)-2-[(3-hydroxy-4-methoxy-pyridine-2-carbonyl)amino] propanoate]
≥ 80%: inhibition of growth at 200 ppm [1] | inhibition of growth at 200 ppm [2] | inhibition of growth at 200 ppm [3] | inhibition of growth at 200 ppm [4] | pest or weed control at 200 ppm [5]

COc1ccnc(C(=O)N[C@@H](C)C(=O)O[C@@H](C)c2ccc(Oc3cccc(Cl)c3)cc2)c1O [I.au.001, [(1S)-1-[4-(3-chlorophenoxy)phenyl]ethyl] (2S)-2-[(3-hydroxy-4-methoxy-pyridine-2-carbonyl)amino] propanoate]
≥ 80%: inhibition of growth at 200 ppm [1] | inhibition of growth at 200 ppm [2] | inhibition of growth at 200 ppm [3] | inhibition of growth at 200 ppm [4] | pest or weed control at 200 ppm [5]

COc1ccnc(C(=O)N[C@@H](C)C(=O)O[C@@H](C)c2ccc(-c3cncc(Cl)c3)cc2)c1O [I.ah.001, [(1S)-1-[4-(5-chloro-3-pyridyl)phenyl]ethyl] (2S)-2-[(3-hydroxy-4-methoxy-pyridine-2-carbonyl)amino] propanoate]
≥ 80%: inhibition of growth at 200 ppm [1] | inhibition of growth at 200 ppm [2] | inhibition of growth at 200 ppm [3] | inhibition of growth at 200 ppm [4] | pest or weed control at 200 ppm [5]

COc1ccnc(C(=O)N[C@@H](C)C(=O)O[C@@H](C)c2ccc(-c3cc(C)ccc3C)cc2)c1O [I.p.001, [(1S)-1-[4-(2,5-dimethylphenyl)phenyl]ethyl] (2S)-2-[(3-hydroxy-4-methoxy-pyridine-2-carbonyl)amino] propanoate]
≥ 80%: inhibition of growth at 200 ppm [6] | inhibition of growth at 200 ppm [1] | inhibition of growth at 200 ppm [2] | inhibition of growth at 200 ppm [3] | pest or weed control at 200 ppm [5]

COc1ccnc(C(=O)N[C@@H](C)C(=O)O[C@@H](C)c2ccc(-c3cccc4ccccc34)cc2)c1O [I.z.001, [(1S)-1-[4-(1-naphthyl)phenyl]ethyl] (2S)-2-[(3-hydroxy-4-methoxy-pyridine-2-carbonyl)amino] propanoate]
≥ 80%: inhibition of growth at 200 ppm [6] | inhibition of growth at 200 ppm [1] | inhibition of growth at 200 ppm [2] | inhibition of growth at 200 ppm [3] | pest or weed control at 200 ppm [5]

COc1ccnc(C(=O)N[C@@H](C)C(=O)O[C@@H](C)c2ccc(-c3ccc(Cl)cc3)cc2)c1O [I.u.001, [(1S)-1-[4-(4-chlorophenyl)phenyl]ethyl] (2S)-2-[(3-hydroxy-4-methoxy-pyridine-2-carbonyl)amino] propanoate]
≥ 80%: inhibition of growth at 200 ppm [6] | inhibition of growth at 200 ppm [1] | inhibition of growth at 200 ppm [2] | inhibition of growth at 200 ppm [3] | inhibition of growth at 200 ppm [4] | pest or weed control at 200 ppm [5]

COc1ccnc(C(=O)N[C@@H](C)C(=O)O[C@@H](C)c2ccc(-c3cscc3C)cc2)c1O [I.bb.001, [(1S)-1-[4-(4-methyl-3-thienyl)phneyl]ethyl] (2S)-2-[(3-hydroxy-4-methoxy-pyridine-2-carbonyl)amino] propanoate]
≥ 80%: inhibition of growth at 200 ppm [1] | inhibition of growth at 200 ppm [2] | inhibition of growth at 200 ppm [3] | inhibition of growth at 200 ppm [4] | pest or weed control at 200 ppm [5]

COc1ccnc(C(=O)N[C@@H](C)C(=O)O[C@@H](C)c2ccc(-c3ccc(C(F)(F)F)nc3)cc2)c1O [I.af.001, [(1S)-1-[4-[6-(trifluoromethyl)-3-pyridyl]phenyl]ethyl] (2S)-2-[(3-hydroxy-4-methoxy-pyridine-2-carbonyl)amino] propanoate]
≥ 80%: inhibition of growth at 200 ppm [1] | inhibition of growth at 200 ppm [2] | inhibition of growth at 200 ppm [3] | inhibition of growth at 200 ppm [4] | pest or weed control at 200 ppm [5]

COc1ccnc(C(=O)N[C@@H](C)C(=O)O[C@@H](C)c2cccc(Oc3cccc(Cl)c3)c2)c1O [I.ar.001, [(1S)-1-[3-(3-chlorophenoxy)phenyl]ethyl] (2S)-2-[(3-hydroxy-4-methoxy-pyridine-2-carbonyl)amino] propanoate]
≥ 80%: inhibition of growth at 200 ppm [1] | inhibition of growth at 200 ppm [2] | inhibition of growth at 200 ppm [3] | pest or weed control at 200 ppm [5]

COc1ccnc(C(=O)N[C@@H](C)C(=O)O[C@@H](C)c2cccc(-c3ccccc3)c2)c1O [I.a.001, [(1S)-1-(3-phenylphenyl)ethyl] (2S)-2-[(3-hydroxy-4-methoxy-pyridine-2-carbonyl)amino] propanoate]
≥ 80%: inhibition of growth at 200 ppm [6] | inhibition of growth at 200 ppm [1] | inhibition of growth at 200 ppm [2] | inhibition of growth at 200 ppm [3] | inhibition of growth at 200 ppm [4]
